The values below come from ChEMBL document CHEMBL1201862, “PubChem BioAssay data set” (2004).

Common to all, as to assay: DTP human tumour cell line panel, 48 h
The test system of assay [1] is SNB-75.
The test system of assay [2] is SF-268.
Assay [3] concerns OVCAR-3.
The subject of assay [4] is HCT-116.
The subject of assay [5] is OVCAR-5.
The test system of assay [6] is ACHN.
Assay [7] concerns NCI-H460.
Assay [8] concerns MOLT-4.
Assay [9] concerns LOX IMVI.
The subject of assay [10] is RXF 393.
For assay [11], the system named is UACC-62.
Assay [12] relates to SNB-19.
Assay [13] relates to CCRF-CEM.
Assay [14] deals with UO-31.
Assay [15] deals with HT-29.
Assay [16] concerns A498.

Each structure is given as a SMILES string.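 Assay format: 96-well plates, 48-hour exposure. GI50 = concentration required for 50% inhibition of growth.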 Activity calls are given as the source filed them. No stated cut-off is given here; in the data, active = GI50 up to about 1.1 µM and inactive = higher.

As a reminder, the GI50 is the concentration giving 50% growth inhibition.

For the molecule `C#CN1C(=O)c2c(c(-c3ccccc3)c(-c3ccc(Oc4ccc(-c5c(-c6ccccc6)c6c(c(-c7ccccc7)c5-c5ccccc5)C(=O)N(C#C)C6=O)cc4)cc3)c(-c3ccccc3)c2-c2ccccc2)C1=O`, the GI50 in [1], in [2], in assay [3], in [4], in [5] and in assay [6] was > 100 µM (inactive) each time. For the same molecule, the GI50 in [7] is > 100 µM (inactive); in assay [8], > 100 µM (inactive); in assay [9], > 100 µM (inactive); in [10], 30.8 µM (inactive); in assay [11], > 100 µM (inactive); in [12] it was > 100 µM (inactive). In addition, the GI50 in assay [13], in [14] and in assay [15] was > 100 µM (inactive) throughout.

Turning to `CC(=O)CNC(=O)OC(C)(C)C`, the GI50 in [1], in assay [2], in [3], in assay [4], in assay [5] and in assay [16] was > 100 µM (inactive) throughout. Moreover, the GI50 in assay [6], in assay [7], in [8], in [10], in assay [11] and in assay [12] was > 100 µM (inactive) each time. Further, the GI50 in [13], in assay [14] and in [15] was > 100 µM (inactive) each time.

Consider `O=C(COc1ccc2c(=O)cc(-c3ccc(Cl)cc3)oc2c1)N1CCN(c2ccccc2)CC1`, for which the GI50 in assay [1] was > 100 µM (inactive); in assay [2] it was > 100 µM (inactive); in assay [3] it was > 100 µM (inactive); in [4], 55.1 µM (inactive); in assay [5], > 100 µM (inactive); in assay [16], 5.69 µM (inactive). The GI50 is > 100 µM (inactive) in [6]; > 100 µM (inactive) in assay [7]; 6.56 µM (inactive) in assay [8]; > 100 µM (inactive) in assay [9]; > 100 µM (inactive) in assay [10]; > 100 µM (inactive) in assay [11]. Besides, the GI50 in [12] was > 100 µM (inactive); in assay [14], 1.73 µM (inactive); in [15], > 100 µM (inactive).

As for `CCOc1ccc(N2C(=O)/C(=C/c3ccc(N(CCC#N)CCC#N)cc3)N=C2c2cc([N+](=O)[O-])ccc2Cl)cc1`, the GI50 is 30.3 µM (inactive) in assay [1]; 30.8 µM (inactive) in [2]; 17.7 µM (inactive) in assay [3]; 21.6 µM (inactive) in [4]; > 100 µM (inactive) in [5]; 48.6 µM (inactive) in assay [16]. The GI50 in assay [6] is 49.9 µM (inactive); in assay [7] it was 23.5 µM (inactive); in assay [8], 0.191 µM (active); in assay [9] it was 23 µM (inactive); in assay [10], 12.2 µM (inactive); in [11], 26.7 µM (inactive). In addition, the GI50 in assay [12] was 35.8 µM (inactive); in [14], 39.4 µM (inactive).

On to `COC(=O)C1=C(C)N(NC(N)=O)C2(N)N(NC(N)=O)C(C)=C(C(=O)OC)C12C(=O)OC` (centres undefined), for which the GI50 in assay [2] was > 100 µM (inactive); in assay [3] it was > 10 µM (inactive); in [4] it was > 100 µM (inactive); in [5], > 100 µM (inactive); in assay [16], > 100 µM (inactive); in assay [6], > 100 µM (inactive). The GI50 in assay [7], in assay [8], in [9], in [11], in assay [12] and in [13] was > 100 µM (inactive) each time. Besides, the GI50 in assay [14] and in [15] was > 100 µM (inactive) each time.

`c1ccc(SC23C4C5C6C4C2C6C53)nc1` (centres undefined): the GI50 in assay [1] is > 77.4 µM (inactive); in [2], > 31.6 µM (inactive); in assay [3], > 100 µM (inactive); in assay [4], > 100 µM (inactive); in [5], > 100 µM (inactive); in [16], > 63.7 µM (inactive). For the same molecule, the GI50 in assay [6], in assay [7], in assay [8], in [9], in assay [11] and in [12] was > 100 µM (inactive) each time. Also, the figures for the GI50 in assay [13], in assay [14] and in [15] were > 100 µM (inactive), 35.6 µM (inactive) and > 100 µM (inactive), respectively.

Regarding `O=C(CC(=O)c1cccc2ccccc12)C(=O)NC1C2CC3CC(C2)CC1C3` (centres undefined), the GI50 in assay [2], in [3], in assay [4], in [5], in assay [16] and in assay [6] was > 100 µM (inactive) in each case. For the same molecule, the GI50 in assay [7], in [8], in [9], in assay [11], in assay [12] and in assay [13] was > 100 µM (inactive) in each case. Moreover, the GI50 in [14] and in [15] was > 100 µM (inactive) each time.

In the case of `CN(C)C(=S)Nc1nnc(Nc2ccccc2)s1`, the GI50 in assay [1], in assay [3], in assay [4], in [5], in assay [16] and in [6] was > 100 µM (inactive) in each case. The GI50 in assay [7], in [8], in assay [9], in assay [10], in assay [12] and in assay [13] was > 100 µM (inactive) throughout. Further, the GI50 in assay [14] and in [15] was > 100 µM (inactive) throughout.

As for `COC(=O)/C=C/c1cc(OC)c(OC)c(OC)c1`, the GI50 in [1] is 41.6 µM (inactive); in assay [2] it was > 100 µM (inactive); in [3], > 100 µM (inactive); in [4] it was > 100 µM (inactive); in assay [6], > 100 µM (inactive); in assay [7], > 100 µM (inactive). The GI50 was > 100 µM (inactive) in assay [8]; > 100 µM (inactive) in assay [9]; > 100 µM (inactive) in assay [10]; 78.3 µM (inactive) in assay [11]; > 100 µM (inactive) in [12]; > 100 µM (inactive) in assay [13]. The results for the GI50 in [14] and in assay [15] were 69.3 µM (inactive) and > 100 µM (inactive), respectively.

Take `Cc1ccc(C2(O)CC(c3ccc([N+](=O)[O-])o3)=NN2C(=O)COc2ccc(Cl)cc2)cc1` (centres undefined): the GI50 in assay [1] is 13.6 µM (inactive); in assay [2], 5.85 µM (inactive); in assay [3], 5.35 µM (inactive); in assay [4] it was 3.85 µM (inactive); in [5] it was 37.2 µM (inactive); in [16], 4.98 µM (inactive). Further, the GI50 in assay [6] is 4.99 µM (inactive); in assay [7], 6.3 µM (inactive); in assay [8], 3.26 µM (inactive); in [9] it was 4.59 µM (inactive); in [11], 3.55 µM (inactive); in assay [12], 6.62 µM (inactive). The GI50 in assay [14] is 5.5 µM (inactive); in assay [15] it was 5.47 µM (inactive).

As for `COc1ccc(/C(=N\NC(=N)N)C(c2ccc(OC)cc2)C2OC(=O)c3ccccc32)cc1` (centres undefined), the GI50 is 67.5 µM (inactive) in assay [1]; > 100 µM (inactive) in assay [2]; > 100 µM (inactive) in assay [3]; > 100 µM (inactive) in assay [4]; > 100 µM (inactive) in assay [5]; > 100 µM (inactive) in assay [6]. Further, the GI50 in assay [7], in assay [8], in [9], in [10], in assay [11] and in assay [12] was > 100 µM (inactive) in each case. For the same molecule, the GI50 in assay [13], in [14] and in assay [15] was > 100 µM (inactive) each time.

On to `C1=CC(N(c2ccccc2)C2C=CCCC2)CCC1` (centres undefined), for which the GI50 in assay [2] was > 100 µM (inactive); in assay [4], 70.1 µM (inactive); in assay [16], > 100 µM (inactive); in [6], > 100 µM (inactive); in [7], > 100 µM (inactive); in assay [8] it was > 10 µM (inactive). Also, the GI50 in [9] was > 100 µM (inactive); in assay [10], 48.6 µM (inactive); in assay [11] it was > 100 µM (inactive); in assay [13], > 100 µM (inactive); in assay [15], > 100 µM (inactive).

In the case of `Clc1cccc(-c2nnc(-c3nn(-c4ccccc4)c4nc5ccccc5nc34)o2)c1`, the GI50 was 36.6 µM (inactive) in assay [1]; > 100 µM (inactive) in assay [2]; > 100 µM (inactive) in assay [3]; > 100 µM (inactive) in [4]; > 100 µM (inactive) in [5]; > 100 µM (inactive) in assay [6]. The GI50 in [7] was > 100 µM (inactive); in [8], > 100 µM (inactive); in [9], > 100 µM (inactive); in [10] it was 56.2 µM (inactive); in [11] it was > 100 µM (inactive); in [12], > 100 µM (inactive). In addition, the GI50 in assay [13], in assay [14] and in [15] was > 100 µM (inactive) throughout.

As to `O=C1Nc2ccccc2C12CCNC2Cc1ccccc1` (centres undefined), the GI50 in assay [1], in assay [2], in [3], in assay [4], in [5] and in [16] was > 100 µM (inactive) throughout. Besides, the GI50 was > 100 µM (inactive) in [6]; > 100 µM (inactive) in assay [7]; > 100 µM (inactive) in assay [8]; > 100 µM (inactive) in [9]; > 100 µM (inactive) in [11]; 56.6 µM (inactive) in assay [12]. For the same molecule, the GI50 in [13] and in assay [15] was > 100 µM (inactive) each time.
